Article PMC12262620 (bioRxiv, 2025)

Experiments:
[1] = system: LgBiT-eIF4E cells; assay: CellTiter-Glo cell viability assay; type: cell-based, human; settings: 6-hour treatment, at the concentrations tested
[2] = biological target: eIF4E binding to m^7GTP RNA substrate (Homo sapiens, UniProt P06730); assay: cell-based; settings: 6-hour treatment
[3] = biological target: His10-eIF4E (human, UniProt P06730 1-217); assay: FP competition
[4] = IC50 in CRISPR RiPCA, read at 24 hours
[5] = IC50 values as 95% confidence intervals, CRISPR RiPCA

eIF4E binding to m^7GTP RNA substrate, sequence (P06730 whole entry): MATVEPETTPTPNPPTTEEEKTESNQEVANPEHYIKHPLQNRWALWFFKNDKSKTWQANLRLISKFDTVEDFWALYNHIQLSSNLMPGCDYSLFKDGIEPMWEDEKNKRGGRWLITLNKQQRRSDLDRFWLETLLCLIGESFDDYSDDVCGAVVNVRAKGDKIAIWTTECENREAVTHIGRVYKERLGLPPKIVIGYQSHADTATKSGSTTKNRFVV
His10-eIF4E, sequence (P06730 whole entry): as above

Row | Molecule | cell viability / cell death [1] | IC50 [2, 4] [nM] | IC50 [2, 5] [nM] | binding result [3]
1 | O=C(O)C(Cc1ccccc1[N+](=O)[O-])=NNc1nc(-c2ccc(Cl)c(Cl)c2)cs1 (mixture of isomers) [4EGI-1] | Absence of viability defects |  |  | 
2 | Cc1cc(-c2cc(Cl)ccc2OCCn2c(C)nc3cc(C(F)(F)F)cc(C#N)c3c2=O)c2scc(C(=O)O)c2n1 [compound 2] |  | 124 | 91 to 171 | 
3 | CO[C@H]1C[C@@H]2CC[C@@H](C)[C@@](O)(O2)C(=O)C(=O)N2CCCC[C@H]2C(=O)O[C@H]([C@H](C)C[C@@H]2CC[C@@H](O)[C@H](OC)C2)CC(=O)[C@H](C)/C=C(\C)[C@@H](O)[C@@H](OC)C(=O)[C@H](C)C[C@H](C)/C=C/C=C/C=C/1C [rapamycin] | Absence of viability defects | 4700 | 1900 to 11000 | 
4 | GCUUCAAGAU (ssRNA, no cap; 3' C6 amine) [G RNA (uncapped)] |  |  |  | no binding
